Legend:
[1] = tested on: draining lymph node cells; test: Proliferation assay, ^3H-thymidine incorporation after s.c. peptide immunization; format: cell-based, mouse
Experimental: (§1) FIGS. 2A-2F. Pathogenic AQP4 determinants bind I-A^b with high affinity and elicit proliferation of AQP4: I-A^b-specific TCR-bearing T cells in AQP4-deficient mice. (FIG. 2A) WT or AQP4^−/− mice were immunized s.c. with peptides indicated. Peptide-specific proliferation of draining lymph node cells was measured by 3H-thymidine incorporation (mean±SEM, representative of five experiments). (FIG. 2B) Lymph node cells from AQP4 immunized WT or AQP4^−/− mice were cultured for 3 days with cognate antigen under Th17 polarizing conditions. AQP4 p133-149- and p202-218-specific Th17 cells from AQP4/donors induce paralysis in WT recipient mice. (FIG. 2C) IEDB, an in silico method for predicting determinants within proteins that bind MHC alleles, was used to identify AQP4 amino acid sequences anticipated to bind I-A^b for recognition by AQP4-specific/I-A^b-restricted CD4^+ T cells. 1/IC50 is plotted against the first amino acid for each overlapping AQP4 15 mer. Peaks correspond to increased predicted binding affinity. (FIG. 2D) Purified I-A^b molecules were tested biochemically for peptide binding affinity using a competitive binding assay between a radiolabeled high-affinity competitor peptide and unlabeled peptides (22). Lower IC50 values indicate higher binding affinity. Boxed amino acids designate the core binding regions. (FIGS. 2E-2F) Lymph node T cells isolated from WT or AQP4−/− mice immunized with AQP4 p133-149 or p202-218 were stained with I-A^b:p133-149 and […] tetramers, bead-enriched and analyzed by flow cytometry. […] Each data point represents one mouse. ****p<0.0001 (Mann Whitney U test).
(§2) FIGS. 4A-4B. Negative selection of AQP4 p133-149-reactive T cells is bypassed partially in mice deficient in thymic AQP4 expression. (FIG. 4A) AQP4^−/− WT, Foxn1cre-AQP4^fl/fl, Aire^−/−, or Foxn1cre-Fezf2^fl/fl mice were immunized s.c. with peptides indicated. Peptide-specific proliferation of draining lymph node cells was measured by 3H-thymidine incorporation (mean±SEM, representative of five experiments). Comparisons within the five experiments for p133-149 at […]: WT vs. AQP4^−/− (p=0.008), WT vs. Foxn1cre-AQP4^fl/fl (p=0.008). (FIG. 4B) Ten days after peptide immunization, CD4^+ T cells from draining lymph nodes were analyzed for I-A^b: peptide tetramer binding by flow cytometry. Each data point represents the frequency (mean±SEM) of CD4^+ T cells bound to cognate antigen-tetramer in a single mouse. […] For p133-149: WT vs. Aire^−/− (p=0.9), WT vs. Foxn1cre-Fezf2^fl/fl (p=0.3). For p202-218: WT vs. Foxn1cre-AQP4^fl/fl (p=0.3), WT vs. Aire^−/− (p=0.06).
(§3) Proliferation assays. Mice were immunized subcutaneously (s.c.) with 100 μg of AQP4, MOG or IRBP peptide in CFA containing 400 μg M. tuberculosis H37Ra (Difco Laboratories). Lymph nodes were harvested on day 10-12 and cultured at 2×10^5/well with various concentrations of peptide in triplicate wells for 72 hours. […] of ^3H-thymidine was added 18 hours prior to cell harvest, and data are presented as counts per minute (CPM). Stimulation Index (SI) was calculated by dividing CPM in wells with Ag by CPM in wells with no antigen controls of each assay test group.

[2] = tested on: draining lymph node cells; test: T cell cross-reactivity between AQP4 and AQP5, ^3H-thymidine proliferation; format: cell-based, mouse; conditions: AQP4-deficient mice immunized with 100 μg AQP5 p174-190; cells cultured with AQP4 201-220, then restimulated
Experimental: FIG. 8. T cells cross-react with AQP4 and AQP5. AQP4-deficient mice were immunized with 100 μg of AQP5 p174-190. Draining lymph node cells were cultured with AQP4 201-220, then restimulated with the different antigens. Proliferation was measured by ^3H-thymidine incorporation of the stimulation to antigen divided by the background stimulation (mean±SEM).
as §3

TCRα deficient mice = test: Adoptive transfer of peptide-primed, AQP4 201-220-cultured Th17 cells into TCRα deficient mice; format: in vivo, mouse; conditions: for clinical CNS autoimmune disease after transfer of primed Th17 cells: donor AQP4-deficient mice primed with the peptide, cells cultured with AQP4 201-220, 2×10^7 T cells into TCRα deficient mice; for meningeal and parenchymal infiltrates vs OVA primed T cells: recipients of primed donor T cells, histological analysis
Experimental: FIGS. 9A-9C. T cells reactive to AQP5, an autoantigen in Sjögren's syndrome also recognize AQP4, the autoantigen in NMO, and can cause CNS autoimmune disease. (FIG. 9A) AQP4-deficient mice were immunized with AQP4 p201-220, AQP5 p174-190 or OVA 323-339. 10-12 days later lymphocytes from draining lymph nodes are removed and cultured with AQP4 201-220 under Th17 polarizing conditions for 72 hours. 2×10^7 T cells were transferred into TCRα deficient mice, followed by 200 ng Pertussis toxin at days 0 and 2. […] Statistics performed using ANOVA with Tukey's test for multiple comparisons. ****P<0.0001.
CNS autoimmune disease induction and analysis. For adoptive induction of CNS disease with primary lymphocytes, mice were immunized s.c. with 100 μg AQP4 or MOG peptides in CFA containing 400 μg M. tuberculosis H37Ra (Difco Laboratories). After 10-12 days, lymph node cells were cultured with 15 μg/ml antigen for 3 days with 20 ng/ml IL-23 and 10 ng/ml IL-6, under Th17 polarizing conditions. 2×10^7 cells were injected i.v. into naïve recipients, which then received 200 ng B. pertussis toxin (Ptx) (List Biological) i.p. on days 0 and 2. Clinical scores: 0=no disease, 1=tail tone loss, 2=impaired righting, 3=severe paraparesis or paraplegia, 4=quadraparesis, and 5=moribund or death.
Histopathology. Brain, spinal cord, optic nerve, kidney and muscle tissue samples were fixed in 10% neutral-buffered formalin, paraffin-embedded, sectioned and stained with H&E. Meningeal and parenchymal inflammatory lesions and areas of demyelination were assessed in a blinded manner as described (39).

[3] = biological target: T1, MHC class II I-A^b molecules (Mus musculus, UniProt P14434+P14483); test: I-A^b affinity assay (competitive binding against a radiolabeled high-affinity peptide); conditions: purified I-A^b; unlabeled peptide vs radiolabeled high-affinity competitor peptide
T1 construct: made in house
T1 sequence (P14434 24-256): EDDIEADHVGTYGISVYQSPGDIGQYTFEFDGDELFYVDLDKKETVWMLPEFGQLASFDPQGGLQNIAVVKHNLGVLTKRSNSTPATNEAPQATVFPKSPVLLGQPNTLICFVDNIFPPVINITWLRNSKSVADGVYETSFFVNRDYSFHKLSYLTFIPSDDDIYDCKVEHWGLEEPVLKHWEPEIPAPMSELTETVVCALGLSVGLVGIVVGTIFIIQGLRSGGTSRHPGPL
T1 sequence (P14483 28-265): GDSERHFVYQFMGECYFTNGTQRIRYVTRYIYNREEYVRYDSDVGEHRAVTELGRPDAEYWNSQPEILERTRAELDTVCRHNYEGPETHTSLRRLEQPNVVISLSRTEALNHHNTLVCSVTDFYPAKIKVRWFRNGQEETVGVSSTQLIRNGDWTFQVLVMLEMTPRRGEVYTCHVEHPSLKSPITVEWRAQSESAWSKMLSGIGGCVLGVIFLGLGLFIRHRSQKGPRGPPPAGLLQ
Experimental: as §1
Both AQP4 p133-149 and p202-218 are predicted to bind MHC II (I-A^b) with high affinity according to the Immune Epitope Database (IEDB) (FIG. 2C), an in silico method for predicting determinants within proteins that bind allele-specific MHC molecules for presentation to T cells (21). We have now examined AQP4 peptide affinity for I-A^b biochemically. I-A^b molecules that were purified by affinity chromatography were tested in a competitive binding assay between a radiolabeled high-affinity competitor peptide and unlabeled peptides (22). Indeed, peptides containing the two pathogenic AQP4 T cell determinants bound I-A^b with higher affinity than the nonpathogenic AQP4 p24-35 T cell epitope or MOG p35-55 (FIG. 2D).
I-A^b affinity Assay. Purification of MHC class II I-A^b molecules by affinity chromatography, and the performance of assays based on the inhibition of binding of a high affinity radiolabeled peptide to quantitatively measure peptide binding, were performed as described (22). Lower IC50 values indicate higher binding affinity. Excellent binders have affinities less than 100 nM and good binders have affinities less than 1000 nM.

CD4^+ T cells = test: I-A^b:peptide tetramer binding by flow cytometry after peptide immunization; format: cell-based, mouse; conditions: Aire^−/− mice, I-A^b:IRBP p277-289 tetramer
Experimental: as §2
Flow cytometry. For analysis of tetramer binding, AQP4 p133-149, p202-218, IRBP p277-289 and hCLIP p87-101 IA^b tetramers conjugated to PE or APC were provided by the National Institute of Allergy and Infectious Diseases Tetramer Core Facility at Emory University. Lymphocytes were coincubated with 1 mg/ml tetramer conjugated to PE or APC for 2 hours at room temperature, washed and enriched using anti-PE magnetic microbeads (Miltenyi) over a magnetic column. Binding to hCLIP tetramer was used as a negative control. Dead cells were excluded using Live/Dead fixable Aqua Dead Cell Stain Kit (Invitrogen), lineage negative cells were excluded using antibodies to CD11b (M1/70), B220 (RA3-6B2) and CD8 (53-6.7) and positive cells were selected using antibodies to CD3 (145-2C11) and CD4 (RM4.5). 123count eBeads (Invitrogen) were used with unenriched and enriched samples for quantification of the frequency of tet^+CD4^+ T cells (total number of tet^+CD4+ T cells divided by total CD4^+ T cells per mouse). For figures showing tetramer staining, flow cytometry of the unenriched cells are shown. For analysis of GFP^+ T cells, mice were perfused with PBS, and the CNS was dissected, minced, digested with collagenase and DNase I (Roche), and isolated over a Ficoll gradient as described previously (39). Live CD4^+ cells were analyzed with a viability stain (Near-IR), and antibodies to CD11b, B220, CD8 and CD4. Apoptosis was analyzed separately using the same antibody staining, followed by Annexin V and 7-AAD staining in Annexin V binding buffer (BioLegend) per manufacturer's instructions. Cells were quantified using 123count eBeads.

Substance: AQP4 p24-35: nonpathogenic AQP4 T cell epitope (VAFKGVWTQAFW) [reference compound]
- discordance in proliferation between AQP4^−/− and WT mice [1]: not observed

Substance: LVGIYFTGCSMNPARSF [AQP5 p174-190, autoantigen in Sjögren's syndrome]
- T cell cross-reactivity [2]: T cell cross-reactivity between AQP5 174-190 and AQP4 201-220
- T cell stimulation (proliferation) [2]: stimulatory
- clinical CNS autoimmune disease after transfer of primed Th17 cells (TCRα deficient mice): cause paralysis
- clinical CNS autoimmune disease after transfer of primed Th17 cells (TCRα deficient mice; listed as AQP5 174-190): can induce clinical and histologic CNS autoimmune disease
- meningeal and parenchymal infiltrates vs OVA primed T cells (TCRα deficient mice): significantly more meningeal and parenchymal infiltrates

Substance: AQP4 p201-220: AQP4 T cell epitope (201-220) that causes CNS autoimmunity in mice (HLFAINYTGASMNPARSFGP; UniProt P55088 201-220, looked up, fragment)
- peptide binding affinity for I-A^b [3]: exceptionally high affinity
- clinical CNS autoimmune disease after transfer of primed Th17 cells (TCRα deficient mice): cause paralysis
- meningeal and parenchymal infiltrates vs OVA primed T cells (TCRα deficient mice): significantly more meningeal and parenchymal infiltrates

Substance: IRBP p277-289: Aire-dependent T cell determinant of interphotoreceptor retinoid-binding protein (FLTVPVSRSLGPL; UniProt P49194 277-289, looked up, fragment) [reference compound]
- expansion of CD4^+ tet^+ T cells (CD4^+ T cells): promoted expansion

Reference: patent US20250052751A1, “COMPOSITIONS AND METHODS FOR DIAGNOSING AUTOIMMUNE AQUAPORINOPATHY” (The Regents of the University of California, priority 2023, published 2025)
